Values of other authors as cited in PMC10837402, “Unnatural amino acid substitutions to improve in vivo stability and tumor uptake of ^68Ga-labeled GRPR-targeted TacBOMB2 derivatives for cancer imaging with positron emission tomography” (EJNMMI Radiopharmacy and Chemistry, 2024).

Columns and labels:
[1] = test system: GRPR-expressing PC-3 tumor xenografts; details: mouse, in vivo, 1 h; cited from earlier work
[2] = target: T1, GRPR (Homo sapiens, UniProt P30550); design: method as in Wang et al. [2023]; details: previously reported; ref Wang et al. [2023]; read-out: GRPR binding affinity (Ki); cited from earlier work
T1 construct: generated using GRPR-expressing PC-3 cells; endogenous in cells; host or cells: PC-3 cells
T1 sequence (P30550 whole entry): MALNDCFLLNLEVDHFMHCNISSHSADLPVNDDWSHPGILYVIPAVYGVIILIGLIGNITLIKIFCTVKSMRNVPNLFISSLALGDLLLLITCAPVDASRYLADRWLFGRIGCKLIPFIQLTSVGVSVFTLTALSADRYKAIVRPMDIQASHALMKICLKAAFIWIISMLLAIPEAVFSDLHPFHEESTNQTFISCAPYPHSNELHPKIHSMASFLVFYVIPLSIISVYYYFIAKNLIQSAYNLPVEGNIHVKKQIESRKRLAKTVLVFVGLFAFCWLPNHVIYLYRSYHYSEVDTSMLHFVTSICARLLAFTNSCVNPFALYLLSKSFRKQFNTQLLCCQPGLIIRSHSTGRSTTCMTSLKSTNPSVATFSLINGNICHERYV

[3] = target: T1, GRPR; details: vs Ac-Bombesin(7–14); ref Horwell et al. 1996; cited from earlier work

**Q.** Which results are given for “^68Ga-DOTA-Pip-D-Phe^6-Gln^7-Trp^8-Ala^9-Val^10-Gly^11-His^12-Leu^13-Thz^14-NH2 [[^68Ga]Ga-TacBOMB2]”?
**A.** Uptake in PC-3 tumor [1]: 5.95 %ID/g; Uptake in adrenal glands [1]: 0.52 ± 0.11 %ID/g; Uptake in blood [1]: 0.39 ± 0.12 %ID/g; Uptake in bone [1]: 0.26 ± 0.11 %ID/g; Uptake in brain [1]: 0.03 ± 0.01 %ID/g; Uptake in fat [1]: 0.10 ± 0.03 %ID/g; Uptake in heart [1]: 0.14 ± 0.02 %ID/g; Uptake in kidneys [1]: 2.43 ± 0.16 %ID/g; Uptake in liver [1]: 0.29 ± 0.13 %ID/g; Uptake in lungs [1]: 0.39 ± 0.10 %ID/g; Uptake in muscle [1]: 0.13 ± 0.08 %ID/g; Uptake in pancreas [1]: 1.30 ± 0.14 %ID/g; Uptake in small intestine [1]: 0.60 ± 0.12 %ID/g; Uptake in spleen [1]: 0.27 ± 0.10 %ID/g; Uptake in stomach [1]: 0.54 ± 0.27 %ID/g; Uptake in testes [1]: 0.16 ± 0.05 %ID/g; Ki [2]: 7.62 nM

**Q.** For Ac-[NMe-Gly^11]Bombesin(7–14), which “Reduction in GRPR binding affinity caused by NMe-Gly^11 substitution” value [3] is on record?
**A.** > 30 fold
